From article PMC6060862, “Prediction and characterization of a novel hemocyanin-derived antimicrobial peptide from shrimp Litopenaeus vannamei” (Amino Acids, 2018)
In brackets after ≈: the same amount, converted by molar mass. Residues, ends and D or L forms follow the SMILES beside them.

Experiments:
Streptococcus pyogenes = type: cell-based; conditions: 2 h, pH 7.6
Procedure: (§1) Seven bacteria including Vibrio parahaemolyticus, Vibrio fluvialis, Vibrio alginolyticus, Escherichia coli, Aeromonas hydrophila, Staphylococcus aureus and Streptococcus pyogenes were grown in LB medium at 30 °C and diluted to 10^6 CFU/mL in 0.01 M, pH 7.6 PBS. Peptides were diluted in PBS. The bacteria and diluted peptides were mixed in equal volumes, and then incubated at 30 °C for 2 h. […] Experiments were carried out in triplicate and repeated at least three times. Data are presented as mean ± standard deviation. GraphPad prism 6 was used to analyze the data with the statistical significance determined by one-way ANOVA and Student’s t test, and all experiments were carried out in triplicate.

Staphylococcus aureus = type: cell-based; conditions: 2 h, pH 7.6
Procedure: as §1

Vibrio alginolyticus = type: cell-based; conditions: 2 h, pH 7.6
Procedure: as §1

Vibrio fluvialis = type: cell-based; conditions: 2 h, pH 7.6
Procedure: as §1

Aeromonas hydrophila = type: cell-based; conditions: 2 h, pH 7.6
Procedure: as §1

Escherichia coli = type: cell-based; conditions: 2 h, pH 7.6
Procedure: as §1

Vibrio parahaemolyticus = assay: Minimal inhibitory concentration (MIC); type: cell-based; conditions: Gram negative; bacteria 10^6 CFU/mL in 0.01 M PBS pH 7.6 mixed with equal volume of peptide in PBS, 30 °C 2 h, plated on LB agar 30 °C overnight; triplicate, repeated at least three times
Procedure: as §1

[1] = system: seven bacteria (V. parahaemolyticus, V. fluvialis, V. alginolyticus, E. coli, A. hydrophila, S. aureus, S. pyogenes); assay: MIC summarised over the seven bacteria (GB, average MIC, fold change); type: cell-based; conditions: for GB: summary of the MICs over the seven bacteria, footnote b not given
Procedure: as §1

[2] = not given; remark: listed apart in the source
[3] = not given; remark: listed apart in the source
[4] = not given; remark: listed apart in the source

Row | SMILES | MIC S. pyogenes (Streptococcus pyogenes) [µg/mL] | MIC S. aureus (Staphylococcus aureus) [µg/mL] | MIC V. alginolyticus (Vibrio alginolyticus) [µg/mL] | MIC V. fluvialis (Vibrio fluvialis) [µg/mL] | MIC A. hydrophila (Aeromonas hydrophila) [µg/mL] | MIC E. coli (Escherichia coli) [µg/mL] | MIC V. parahaemolyticus (Vibrio parahaemolyticus) [µg/mL] | GB [1] [µg/mL] | random coil content [%] | β-turns content [2] [%] | α-helical content [3] [%] | β-strand content [4] [%] | average MIC relative to the average MIC of L1 ([1]; over the seven bacteria)
1 | CC[C@H](C)[C@H](NC(=O)[C@H](CCCNC(=N)N)NC(=O)[C@H](CO)NC(=O)[C@H](CCC(=O)O)NC(=O)[C@@H](NC(=O)[C@@H](NC(=O)[C@H](CC(C)C)NC(=O)[C@H](CC(C)C)NC(=O)[C@H](CC(=O)O)NC(=O)[C@H](CCCNC(=N)N)NC(=O)[C@@H](NC(=O)[C@H](CCCNC(=N)N)NC(=O)[C@H](C)NC(=O)[C@@H](NC(=O)CN)C(C)C)[C@@H](C)CC)[C@@H](C)CC)[C@@H](C)CC)C(N)=O [L8] (H-GVARIRDLLIIESRI-NH2; N-terminus and C-terminus assumed) | 250 (≈ 145 µM) | 250 (≈ 145 µM) | 250 (≈ 145 µM) | 250 (≈ 145 µM) | 31.3 (≈ 18.2 µM) | > 250 | 250 (≈ 145 µM) | 185.8 |  |  |  |  | 
2 | CC[C@H](C)[C@H](NC(=O)[C@H](C)NC(=O)[C@H](CC(=O)O)NC(=O)[C@H](CCCNC(=N)N)NC(=O)[C@@H](NC(=O)[C@@H](N)CCCNC(=N)N)[C@@H](C)CC)C(=O)N[C@@H](C)C(=O)N[C@@H](Cc1c[nH]cn1)C(=O)NCC(=O)N[C@@H](Cc1ccc(O)cc1)C(=O)N[C@H](C(=O)N[C@H](C(=O)N[C@@H](CC(=O)O)C(=O)N[C@@H](CCCCN)C(=O)N[C@H](C(N)=O)C(C)C)C(C)C)[C@@H](C)CC [L10] (H-RIRDAIAHGYIVDKV-NH2) | 125 (≈ 72.5 µM) | > 250 | 31.3 (≈ 18.1 µM) | 125 (≈ 72.5 µM) | 31.3 (≈ 18.1 µM) | > 250 | 250 (≈ 145 µM) | 113.3 |  |  |  |  | 
3 | CC[C@H](C)[C@H](NC(=O)[C@H](CCCCN)NC(=O)[C@H](Cc1c[nH]cn1)NC(=O)[C@H](CC(C)C)NC(=O)[C@H](CC(C)C)NC(=O)[C@H](Cc1ccccc1)NC(=O)[C@H](CC(N)=O)NC(=O)[C@@H](N)C(C)C)C(=O)N[C@@H](Cc1ccc(O)cc1)C(=O)NCC(=O)N[C@@H](CC(N)=O)C(=O)N[C@H](C(=O)N[C@@H](CCCNC(=N)N)C(=O)N[C@@H](Cc1ccc(O)cc1)C(=O)N[C@@H](CO)C(N)=O)[C@@H](C)CC [L1] (H-VNFLLHKIYGNIRYS-NH2) | 62.5 (≈ 34 µM) | 62.5 (≈ 34 µM) | 3.9 (≈ 2.12 µM) | 62.5 (≈ 34 µM) | 3.9 (≈ 2.12 µM) | 3.9 (≈ 2.12 µM) | 31.2 (≈ 17 µM) |  | 33.4 | 24 | 34.6 | 11.2 | 
4 | CC[C@H](C)[C@H](NC(=O)[C@H](Cc1c[nH]cn1)NC(=O)[C@H](C)NC(=O)[C@@H](NC(=O)[C@H](CC(N)=O)NC(=O)[C@H](Cc1c[nH]cn1)NC(=O)[C@H](CC(C)C)NC(=O)[C@H](C)NC(=O)CNC(=O)[C@H](Cc1ccc(O)cc1)NC(=O)[C@@H](N)Cc1ccc(O)cc1)[C@@H](C)O)C(=O)N[C@H](C(=O)N[C@@H](CC(C)C)C(=O)NCC(=O)N[C@@H](CCCNC(=N)N)C(N)=O)C(C)C [L12] (H-YYGALHNTAHIVLGR-NH2) | 125 (≈ 74.2 µM) | > 250 | 15.6 (≈ 9.26 µM) | 250 (≈ 148 µM) | 125 (≈ 74.2 µM) | 125 (≈ 74.2 µM) | 250 (≈ 148 µM) | 125.0 |  |  |  |  | 
5 | CC(C)C[C@H](NC(=O)[C@H](CCCCN)NC(=O)[C@H](CCC(N)=O)NC(=O)[C@@H](NC(=O)[C@H](C)NC(=O)[C@H](CCC(=O)O)NC(=O)CNC(=O)CN)C(C)C)C(=O)N[C@H](C(=O)N[C@@H](CCCNC(=N)N)C(=O)N[C@@H](CCC(=O)O)C(=O)N[C@H](C(=O)N[C@@H](CCCCN)C(=O)N[C@@H](CC(=O)O)C(=O)NCC(N)=O)C(C)C)C(C)C [L2] (H-GGEAVQKLVREVKDG-NH2; N-terminus and C-terminus assumed) | 250 (≈ 158 µM) | > 250 | 125 (≈ 78.9 µM) | 125 (≈ 78.9 µM) | 250 (≈ 158 µM) | > 250 | 250 (≈ 158 µM) | 205.1 |  |  |  |  | tenfold
